These results are taken from patent US6242445A, “Benzimidazole derivative” (Kureha Chemical Industry Co., Ltd., priority 1998, dated 2001).

SMILES strings stand for the structures.

Experiment [1] concerns kidney disease model rats. The experiment can be described thus: Survival time of kidney diseased animals. In kind it is in vivo, Sprague-Dawley female rats. The settings on record: for survival time / Average survival time: 20 mg/kg/day; for Average survival time: observation period eight weeks (upper limit), control 5.0; for effect on survival compared with reference substance: vs DuP753. On the procedure: (§1) In this Example, an action to lower blood pressure was evaluated. That is, each of 2-ethoxy-1-[[4'- (2'-N,N-dimethylamino-ethoxycarbonyl) phenyl]methyl]-1H-benzimidazole-6-carboxylic acid morpholide (Compound No. 13) prepared in Example 6, 2-ethoxy-1-[[4'-(2"-morpholinoethoxycarbonyl)-phenyl]methyl]-1H-benzimidazole-6-carboxylic acid piperidinamide (Compound No. 57) prepared in Example 28, or the reference substance was forcibly orally administered to kidney disease model rats, and the action of lowering the blood pressure was observed. The kidney disease model rats were prepared by a ligature of branches of renal artery in accordance with a conventional method. Namely, the left hilum renalis of Sprague-Dawley female rats was exposed under anesthesia, and one of four secondary branches of the renal artery was left unligated, while the remaining three branches were ligated, respectively. After a week, the hilum renalis (artery, vein, and ureter) of the right kidney were further ligated to thereby prepare rats whose renal function was lowered to approximately 1/8 of the normal function. Each group consisted of eight rats. The drugs to be tested (20 mg/kg) were administered to each administering group, and only water was administered to a control group. Two days after the administration, the systolic blood pressure was measured by the tail cuff method using a blood pressure measuring apparatus (UR^5000; Ueda).
In this Example, an action to survival time of kidney diseased animals was evaluated. As compounds to be examined, 2-ethoxy-1-[[4'-(2"-N,N-dimethylamino-ethoxycarbonyl)-phenyl]methyl]-1H-benzimidazole-6-carboxylic acid morpholide (Compound No. 13) prepared in Example 6, and 2-ethoxy-1-[[4'-(2"-morpholinoethoxycarbonyl)phenyl]methyl]-1H-benzimidazole-6-carboxylic acid piperidinamide (Compound No. 57) prepared in Example 28 were used.
The kidney disease model rats were prepared as in Example 38. Fifteen groups (8 rats per group) were prepared in a manner such that there was no major difference between the groups in the serum creatinine value and the blood urea nitrogen value indicating renal function. The rats in each group were allowed to freely take up food and water. […] To the rats in the control group, only water was forcibly orally administered every day. If kidney diseases are aggravated, the rat will die of uremia. Thus, the survival time was observed as a comprehensive indication of the improvement of the effect on the kidney diseases. The observation period was eight weeks. Thus if all rats survived, the average survival time is eight weeks, and is an upper limit.

The test system of experiment [2] is kidney disease model rats. Description: Action to lower blood pressure in kidney disease model rats. In kind it is in vivo, Sprague-Dawley female rats. Conditions: 20 mg/kg oral; for action of lowering the blood pressure: in comparison with the control group; for Blood pressure: systolic, tail cuff, average, two days after administration, control 210. How it is done:
as §1

Regarding `CCOc1nc2ccc(C(=O)N3CCOCC3)cc2n1Cc1ccc(C(=O)OCCN(C)C)cc1` [Compound No. 13, 2-ethoxy-1-[[4'-(2"-N,N-dimethylaminoethoxycarbonyl)phenyl]methyl]-1H-benzimidazole-6-carboxylic acid morpholide], in experiment [1], the “survival time” value is on record as “clearly prolonged the survival time”, the Average survival time stood at 7.5 weeks and the “effect on survival compared with reference substance” value is on record as “comparable or superior to that of the reference substance”. In experiment [2], the “action of lowering the blood pressure” value is recorded as “an influence on the blood pressure was not substantially observed” and the Blood pressure amounted to 208 mmHg.

In the case of `CCOc1nc2ccc(C(=O)N3CCCCC3)cc2n1Cc1ccc(C(=O)OCCN2CCOCC2)cc1` [Compound No. 57, 2-ethoxy-1-[[4'-(2"-morpholinoethoxycarbonyl)phenyl]methyl]-1H-benzimidazole-6-carboxylic acid piperidinamide], in experiment [1], the “survival time” value is recorded as “clearly prolonged the survival time”, the Average survival time is 7.5 weeks and the “effect on survival compared with reference substance” value is “comparable or superior to that of the reference substance”. Moreover, in experiment [2], the “action of lowering the blood pressure” value is recorded as “an influence on the blood pressure was not substantially observed” and the Blood pressure turned out to be 205 mmHg.
